Data on one molecule can be found in publication PMC10946790, “A Functional Chemiluminescent Probe for in Vivo Imaging of Natural Killer Cell Activity Against Tumours” (Angewandte Chemie (Weinheim an Der Bergstrasse, Germany), 2021).

Where a SMILES comes first, the peptide text is derived from it. The star is where a group is joined. AMC = Cc1cc(=O)oc2cc(N*)ccc12

For this assay, the target named is T1, hr‐granzyme B (Homo sapiens, UniProt P10144).
T1 construct: in the absence and presence of active human recombinant (hr)‐granzyme B
The assay is described as follows: Time-course signal-to-noise ratios after reaction with granzyme B. The class given is biochemical. The note with it: probe 25 μM, hr-granzyme B 20 nM, aqueous buffer, 37 °C, over 30 minutes; mean ± SEM, n=6. The procedure:
In vitro characterisation assays. Enzymatic assays were run in a 384-well format in a PCR opaque microplate (Thermo Scientific). All experiments were performed at least in triplicate. Dilutions and reactions using human GZM B and human neutrophil elastase were prepared in 50 mM Tris-HCl and 100 mM NaCl (pH 7.4). GZM A assays were performed in 25 mM HEPES, 0.1% CHAPS and 10 mM DTT (pH 7.5). Dilutions and incubations with CASP8 and CASP9 were prepared in 50 mM HEPES, 100 mM NaCl, 0.1% Triton X-100, 10 mM DTT, 1 mM EDTA and 10% glycerol (pH 7.4). Any other tested biomolecules were prepared in PBS. Proteolytic activity was determined by calculating the fold change in chemiluminescence signal (or fluorescence signal in the case of Ac - IEPD-AMC) over background signal provided by the corresponding dilution of the probes with the enzyme using a spectrophotometer (Synergy H1 Hybrid Reader, BioTek) at 37°C.
Unless otherwise stated, probes were utilized at a concentration of 100 μM. Enzyme concentration used: 20 nM (except CASP9, which was used at 200 nM) and all other biomolecules were tested at 100 μM. In the case where an inhibitor was used, the enzyme was pre-incubated for 1 h with the inhibitor (100 µM) before addition of probe 1.
Cell culture. […]

T1 sequence (P10144 21-247): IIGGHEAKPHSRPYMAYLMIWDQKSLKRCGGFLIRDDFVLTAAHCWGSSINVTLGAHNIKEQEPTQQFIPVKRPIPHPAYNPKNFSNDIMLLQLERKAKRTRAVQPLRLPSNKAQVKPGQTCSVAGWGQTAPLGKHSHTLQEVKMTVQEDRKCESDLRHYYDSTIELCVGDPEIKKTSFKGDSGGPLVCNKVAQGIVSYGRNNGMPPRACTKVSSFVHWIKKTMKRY

Consider `CC[C@H](C)[C@H](NC(C)=O)C(=O)N[C@@H](CCC(=O)O)C(=O)N1CCC[C@H]1C(=O)N[C@@H](CC(=O)O)C(=O)Nc1ccc2c(C)cc(=O)oc2c1` [Ac‐IEPD‐AMC] (Ac-IEPD-{AMC}), for which the “Signal‐to‐noise (S/N) ratio, fluorescence” value is given as “under 5”.
